This passage reports Ki results from patent publication US10028942B2 (priority 2013, dated 2018).

The assay deals with T1, DLK (Homo sapiens, UniProt Q12852).
T1 sequence (Q12852 1-520): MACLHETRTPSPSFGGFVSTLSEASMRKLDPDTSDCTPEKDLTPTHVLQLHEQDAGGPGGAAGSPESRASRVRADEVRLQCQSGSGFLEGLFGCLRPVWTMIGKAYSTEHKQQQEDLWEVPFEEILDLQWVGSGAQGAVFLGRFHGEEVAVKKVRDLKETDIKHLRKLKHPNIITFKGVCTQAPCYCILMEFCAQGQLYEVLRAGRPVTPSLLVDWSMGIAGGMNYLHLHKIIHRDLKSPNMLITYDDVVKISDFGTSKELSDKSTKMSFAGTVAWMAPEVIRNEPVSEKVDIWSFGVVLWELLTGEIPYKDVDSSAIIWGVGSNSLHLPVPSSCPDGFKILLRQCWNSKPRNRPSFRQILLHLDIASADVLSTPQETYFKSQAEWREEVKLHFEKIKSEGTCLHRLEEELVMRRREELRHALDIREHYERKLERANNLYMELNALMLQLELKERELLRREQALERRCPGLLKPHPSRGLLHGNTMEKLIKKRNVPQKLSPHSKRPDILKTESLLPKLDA
The note with it: read-out: DLK (Ki) μM; TR-FRET; 5 nM GST-tagged DLK (catalytic domain aa 1-520), 40 nM HIS-MKK4 K131M substrate, 30 μM ATP, 60 minutes. For orientation: TR-FRET usually uses a lanthanide donor and a delayed reading to cut background.

Structures are written as SMILES.

Broadly, the Ki is the dissociation constant of the complex between target and ligand, obtained from inhibition or displacement. In the case of `COCCN1C[C@@H]2[C@H](C1)[C@H]2c1cc(-c2cnc(N)c(Cl)c2)nn1CC1CC1` [Compound 123, 3-chloro-5-(1-(cyclopropylmethyl)-5-((1R,5S,6r)-3-(2-methoxyethyl)-3-aza-bicyclo[3.1.0]hexan-6-yl)-1H-pyra-zol-3-yl)pyridin-2-amine], the Ki worked out at 0.027 µM.
For `COCCN1C[C@@H]2[C@H](C1)[C@H]2c1cc(-c2cnc(N)c(C(F)(F)F)c2)nn1CC1CCC1` [Compound 124, 5-(1-(cyclobutylmethyl)-5-((1R,5S,6r)-3-(2-methoxyethyl)-3-azabicyclo [3.1.0]hexan-6-yl)-1H-pyrazol-3-yl)-3-(trifluoromethyl)pyridin-2-amine], the Ki was 0.027 µM.
The same measure for `COCCN1C[C@@H]2[C@H](C1)[C@H]2c1cc(-c2cnc(N)c(OC(F)(F)F)c2)nn1C(C)C` [Compound 125, 5-(1-isopropyl-5-((1R,5S,6r)-3-(2-meth-oxyethyl)-3-azabicyclo[3.1.0]hex-an-6-yl)-1H-pyrazol-3-yl)-3-(trifluoro-methoxy)pyridin-2-amine]: 0.0058 µM.
As to `COCCN1C[C@@H]2[C@H](C1)[C@H]2c1cc(-c2cnc(N)c(C(F)(F)F)c2)nn1CC(F)(F)F` [Compound 126, 5-(5-((1R,5S,6r)-3-(2-methoxyethyl)-3-azabicyclo[3.1.0]hexan-6-yl)-1-(2,2,2-trifluoroethyl)-1H-pyrazol-3-yl)-3-(trifluoromethyl)pyridin-2-amine], the inhibition constant Ki was determined as 0.0019 µM.
For `CC(C)n1nc(-c2cnc(N)c(C(F)(F)F)c2)cc1[C@H]1[C@@H]2CN(CCC#N)C[C@@H]21` [Compound 127, 3-((1R,5S,6r)-6-(3-(6-amino-5-(trifluoro-methyl)pyridin-3-yl)-1-isopropyl-1H-pyrazol-5-yl)-3-azabicyclo[3.1.0]hexan-3-yl)propanenitrile] the value was 0.0059 µM; for `CC(C)n1nc(-c2cnc(N)c(C(F)(F)F)c2)cc1[C@H]1[C@@H]2CN(CC(C)(C)O)C[C@@H]21` [Compound 128, 1-((1R,5S,6r)-6-(3-(6-amino-5-(trifluoro-methyl)pyridin-3-yl)-1-isopropyl-1H-pyrazol-5-yl)-3-azabicyclo[3.1.0]hexan-3-yl)-2-methylpropan-2-ol], 0.011 µM.
With `COCC(C)N1C[C@@H]2[C@H](C1)[C@H]2c1cc(-c2cnc(N)c(C(F)(F)F)c2)nn1C(C)C` (stereo partly drawn) [Compound 129, 5-(1-isopropyl-5-((1R,5S,6r)-3-(1-meth-oxypropan-2-yl)-3-azabicyclo[3.1.0]hexan-6-yl)-1H-pyrazol-3-yl)-3-(trifluoromethyl)pyridin-2-amine], the Ki was found to be 0.0013 µM.
The same measure for `CC(C)OC(=O)N1C[C@@H]2[C@H](C1)[C@H]2c1cc(-c2cnc(N)c(C(F)(F)F)c2)nn1C(C)C` [Compound 130, (1R,5S,6r)-isopropyl 6-(3-(6-amino-5-(trifluoromethyl)pyr-ridin-3-yl)-1-isopropyl-1H-pyrazol-5-yl)-3-azabicyclo[3.1.0]hexane-3-car-boxylate]: 0.0056 µM; for `CC(CC#N)N1C[C@@H]2[C@H](C1)[C@H]2c1cc(-c2cnc(N)c(C(F)(F)F)c2)nn1C(C)C` (stereo partly drawn) [Compound 131, 3-((1R,5S,6r)-6-(3-(6-amino-5-(trifluoro-methyl)pyridin-3-yl)-1-isopropyl-1H-pyrazol-5-yl)-3-azabicyclo[3.1.0]hexan-3-yl)butanenitrile]: 0.0044 µM; for `CC(C)n1nc(-c2cnc3[nH]cc(C#N)c3c2)cc1[C@H]1[C@@H]2CN(C3COC3)C[C@@H]21` [Compound 132, 5-(1-isopropyl-5-((1R,5S,6r)-3-(oxetan-3-yl)-3-azabicyclo[3.1.0]hexan-6-yl)-1H-pyrazol-3-yl)-1H-pyrrolo[2,3-b]pyridine-3-carbonitrile]: 0.025 µM.
Turning to `CC(C)n1nc(-c2cnc3[nH]cc(C(F)(F)F)c3c2)cc1[C@H]1[C@@H]2CN(C3COC3)C[C@@H]21` [Compound 133, 5-(1-isopropyl-5-((1R,5S,6r)-3-(oxe-tan-3-yl)-3-azabicyclo[3.1.0]hexan-6-yl)-1H-pyrazol-3-yl)-3-(trifluorometh-yl)-1H-pyrrolo[2,3-b]pyridine], the Ki worked out at 0.0004 µM.
For `Nc1ncc(-c2cc([C@H]3[C@@H]4CN(C5COC5)C[C@@H]43)n(C3CCCC3)n2)cc1C(F)(F)F` [Compound 135, 5-(1-cyclopentyl-5-((1R,5S,6r)-3-(oxetan-3-yl)-3-azabicyclo[3.1.0]hexan-6-yl)-1H-pyrazol-3-yl)-3-(trifluoromethyl)pyridin-2-amine] the value was 0.0089 µM; for `Nc1ncc(-c2cc([C@H]3[C@@H]4CN(C5COC5)C[C@@H]43)n(C3CCCC3)n2)cc1Cl` [Compound 136, 3-chloro-5-(1-cyclopentyl-5-((1R,5S,6r)-3-(oxetan-3-yl)-3-azabicyclo [3.1.0]hexan-6-yl)-1H-pyrazol-3-yl) pyridin-2-amine], 0.024 µM.
As to `Nc1ncc(-c2cc([C@H]3[C@@H]4CN(C5COC5)C[C@@H]43)n(C3CCCC3)n2)cc1OC(F)F` [Compound 137, 5-(1-cyclopentyl-5-((1R,5S,6r)-3-(oxe-tan-3-yl)-3-azabicyclo[3.1.0]hexan-6-yl)-1H-pyrazol-3-yl)-3-(difluoro-methoxy)pyridin-2-amine], the Ki is 0.0074 µM.
For `N#Cc1cc(-c2cc([C@H]3[C@@H]4CN(C5COC5)C[C@@H]43)n(C3CCCC3)n2)cnc1N` [Compound 138, 2-amino-5-(1-cyclopentyl-5-((1R,5S,6r)-3-(oxetan-3-yl)-3-azabicyclo[3.1.0]hexan-6-yl)-1H-pyrazol-3-yl)nicoti-nitrile] the value was 0.031 µM; for `Nc1ncc(-c2cc([C@H]3[C@@H]4CN(C5COC5)C[C@@H]43)n(C3CCCC3)n2)cc1C1CC1` [Compound 139, 5-(1-cyclopentyl-5-((1R,5S,6r)-3-(oxe-tan-3-yl)-3-azabicyclo[3.1.0]hexan-6-yl)-1H-pyrazol-3-yl)-3-cyclopro-pylpyridin-2-amine], 0.037 µM.
In the case of `CC(C)n1nc(-c2cnc(N)c(Cl)c2)cc1[C@H]1[C@@H]2CN(C3COC3)C[C@@H]21` [Compound 140, 3-chloro-5-(1-isopropyl-5-((1R,5S,6r)-3-(oxetan-3-yl)-3-azabicyclo[3.1.0]hexan-6-yl)-1H-pyrazol-3-yl)pyridin-2-amine], the inhibition constant (Ki) was 0.04 µM.
With `CC(C)n1nc(-c2cnc(N)c(OC(F)F)c2)cc1[C@H]1[C@@H]2CN(C3COC3)C[C@@H]21` [Compound 141, 3-(difluoromethoxy)-5-(1-isopropyl-5-((1R,5S,6r)-3-(oxetan-3-yl)-3-aza-bicyclo[3.1.0]hexan-6-yl)-1H-pyrazol-3-yl)pyridin-2-amine], the Ki turned out to be 0.008 µM.
The same measure for `CC(C)n1nc(-c2cnc(N)c(C3CC3)c2)cc1[C@H]1[C@@H]2CN(C3COC3)C[C@@H]21` [Compound 142, 3-cyclopropyl-5-(1-isopropyl-5-((1R,5S,6r)-3-(oxetan-3-yl)-3-azabicyclo [3.1.0]hexan-6-yl)-1H-pyrazol-3-yl) pyridin-2-amine]: 0.022 µM; for `CC(C)n1nc(-c2cnc(N)c(C#N)c2)cc1[C@H]1[C@@H]2CN(C3COC3)C[C@@H]21` [Compound 144, 2-amino-5-(1-isopropyl-5-((1R,5 S,6r)-3-(oxetan-3-yl)-3-azabicyclo[3.1.0]hexan-6-yl)-1H-pyrazol-3-yl)nicotinonitrile]: 0.022 µM.
Consider `COc1cc(-c2cc([C@H]3[C@@H]4CN(C5COC5)C[C@@H]43)n(C(C)C)n2)cnc1N` [Compound 145, 5-(1-isopropyl-5-((1R,5S,6r)-3-(oxetan-3-yl)-3-azabicyclo[3.1.0]hexan-6-yl)-1H-pyrazol-3-yl)-3-methoxy-pyridin-2-amine], for which the Ki amounted to 0.0074 µM.
Take `CC(C)Oc1cc(-c2cc([C@H]3[C@@H]4CN(C5COC5)C[C@@H]43)n(C(C)C)n2)cnc1N` [Compound 146, 3-isopropoxy-5-(1-isopropyl-5-((1R,5S,6r)-3-(oxetan-3-yl)-3-azabicyclo [3.1.0]hexan-6-yl)-1H-pyrazol-3-yl) pyridin-2-amine]: the Ki was 0.014 µM.
In the case of `Nc1ncc(-c2cc([C@H]3[C@@H]4CN(C5COC5)C[C@@H]43)n(C3CCC3)n2)cc1Cl` [Compound 147, 3-chloro-5-(1-cyclobutyl-5-((1R,5S,6r)-3-(oxetan-3-yl)-3-azabicyclo[3.1.0]hexan-6-yl)-1H-pyrazol-3-yl)pyri-din-2-amine], the inhibition constant Ki was 0.018 µM.
Turning to `Nc1ncc(-c2cc([C@H]3[C@@H]4CN(C5COC5)C[C@@H]43)n(C3CCC3)n2)cc1C(F)(F)F` [Compound 148, 5-(1-cyclobutyl-5-((1R,5S,6r)-3-(oxetan-3-yl)-3-azabicyclo[3.1.0]hexan-6-yl)-1H-pyrazol-3-yl)-3-(trifluoromethyl)pyridin-2-amine], the Ki was 0.0012 µM.
`Nc1ncc(-c2cc([C@H]3[C@@H]4CN(C5COC5)C[C@@H]43)n(C3CCC3)n2)cc1OC(F)F` [Compound 151, 5-(1-cyclobutyl-5-((1R,5S,6r)-3-(oxe-tan-3-yl)-3-azabicyclo[3.1.0]hexan-6-yl)-1H-pyrazol-3-yl)-3-(difluorometh-oxy)pyridin-2-amine]: the inhibition constant (Ki) was found to be 0.0055 µM.
On to `Nc1ncc(-c2cc([C@H]3[C@@H]4CN(C5COC5)C[C@@H]43)n(CC3CC3)n2)cc1C(F)(F)F` [Compound 152, 5-(1-(cyclopropylmethyl)-5-((1R,5S,6r)-3-(oxetan-3-yl)-3-azabicyclo[3.1.0]hexan-6-yl)-1H-pyrazol-3-yl)-3-(tri-fluoromethyl)pyridin-2-amine], for which the Ki stood at 0.00017 µM.
